Experimental findings from US20070212426A1, “Composition and method of retarding viral activity and reducing viral replication” (priority 2006, published 2007) are described below.

The structures appear in SMILES notation. Read-outs that look alike come from different tables or passages of the source.

Assay [1] has as its system human influenza A virus (VR-1520). In kind it is cell-based. The settings on record: for output of Antigen to the control's output: Vero cells, control 245 Antigen units/ml.
Assay [2] deals with Influenza Virus A's Neuraminidase. In words: Neuraminidase activity of cell-free virus, 4-methylumbelliferyl N-acetylneuramic acid substrate.
From the text: The method of these experiments are well known in the art, however, in brief, cell free virus are mixed with an equal volume of the composition in Table 1 or Ascorbic Acid in another, at various concentrations, and any inhibitory activity is observed at various time points after the mixture. Spectrophotometer assay for Neuraminidase has been established in the laboratory at using 4-methylumbelliferyl N-acetylneuramic acid as a substrate in the cell free system.

In the case of `O=C1O[C@H]([C@@H](O)CO)C(O)=C1O` [ascorbic acid], the “output of Antigen to the control's output” value in assay [1] (50 micromoles) is given as 35%; in assay [1] (100 micromoles), 45%; in assay [1] (250 micromoles), 41%. In addition, the “Influenza A virus antigen production in Vero cells (figure legend)” value in assay [1] (various concentrations, serum-free medium) is “marginal decrease”. Moreover, the “Neuraminidase activity to the control's” value in assay [2] (1000 microgram/ml) is reported as 90%; in assay [2] (2000 microgram/ml), 85%; in assay [2] (3000 microgram/ml), 80%.
